According to patent publication US20240173372A1 (IMDpharm Inc., priority 2021, published 2024):
In brackets after ≈: the same amount, converted by molar mass.

System: House Ear Institute-Organ of Corti 1 (HEI-OC1) auditory hair cell
Experiment: Apoptosis inhibitory effect on auditory cell line treated with hydrogen peroxide (MTT analysis)
Assay type: cell-based, mice
Conditions: Mus musculus, HEI-OC1, 100 μM hydrogen peroxide, read-out: EC50 (apoptosis inhibitory effect, hair cells)
Experimental: House Ear Institute-Organ of Corti 1 (HEI-OC1), an auditory hair cell derived from the Organ of Corti which is the auditory generation organ in mice, was cultured in an incubator at 33° C. in the presence of 10% CO2 using DMEM (high-glucose Dulbecco's Eagle's medium, Sigma-Aldrich Co., St. Louis, USA) culture including 10% fetal bovine serum (FBS; WELGENE Inc., Gyeongsangbuk-do, Korea) and 50 U/mL INF-γ (Peprotech Inc., Seoul, Korea) without addition of antibiotics. In order to generate reactive oxygen species (ROS) caused by oxidative stress that occurs in the process of inducing noise induced hearing loss, cell lines with noise induced hearing loss were established by treating hydrogen peroxide.

## COc1cccc(CCc2ccccc2OCC(CN(C)C)OC(=O)CCC(=O)O)c1 (single isomer, unassigned; (-)) [sarpogrelate, (−)-4-[1-dimethylamino-3-[2-[2-(3-methoxyphenyl)ethyl]phenoxy]propan-2-yl]oxy-4-oxobutanoic acid]
  EC50: 26.4 µg/mL (≈ 61.5 µM)
